According to patent US20020155518A1, “Method of detecting compounds that control fungal diseases via effects on sporulation” (priority 2000, published 2002):

Columns and labels:
Aspergillus nidulans [1] = assay: High-throughput screen for antisporulant activity, direct application with a replicator; type: cell-based; settings: direct application to the medium using a replicator; 2 days at 37° C.
Text: For high-throughput screens, 245mm square bioassay dishes were poured and the medium containing the spore inoculum was allowed to solidify prior to application of test samples. Test samples, representing a broad spectrum of diverse chemical structures, were applied to the surface of the agar medium either by hand, using a replicator, or by robotic application. Each screen included a positive control treatment (e.g., 5 ∝g of one of the active benzophenones described elsewhere herein) that provided a positive response. Plates were incubated for 2 days at 37° C. Positives were initially identified by the presence of a discolored zone around the test sample. The positives were confirmed by retest followed by observation under a low power microscope (×20 magnification).
7000 compounds with diverse structures have been tested using the such a highthroughput screen. The compounds were tested by direct application to the medium using a replicator.

Aspergillus nidulans [2] = assay: Sporulation assay, paper disc diffusion on PDA seeded with spores; type: cell-based, Aspergillus nidulans strain 003 (ATCC 36321)
[3] = system: Rice Blast (Magnaporthe grisea); type: in vivo; settings: foliar spray before inoculation, vs untreated inoculated controls
[4] = system: Wheat Powdery Mildew (Blumeria [Erysiphe] graminis f.sp. tritici); settings: in vivo; also: key: '+++' =high control; '++' =moderate control; '+' =low control; '0'=no control
[5] = system: Leptosphaeria (Septoria) nodorum; assay: Protectant foliar spray test against wheat L. nodorum blotch; type: in vivo; settings: wheat, foliar spray before inoculation; vs untreated inoculated controls; also: key: '+++' =high control; '++' =moderate control; '+' =low control; '0'=no control
[6] = system: Apple Scab (Venturia inaequalis); assay: Protectant foliar spray test against apple scab; type: in vivo; settings: apple seedlings, foliar spray before inoculation; vs untreated inoculated controls; also: key: '+++' =high control; '++' =moderate control; '+' =low control; '0'=no control

SMILES | anti-sporulation activity (Aspergillus nidulans [1]) | Active (Aspergillus nidulans [2]) | Inactive (Aspergillus nidulans [2]) | Moderately active (Aspergillus nidulans [2]) | Level of Plant Disease Control, Rice Blast [3] | Level of Plant Disease Control, Wheat Powdery Mildew [4] | Level of Plant Disease Control, Wheat L. nodorum [5] | Level of Plant Disease Control, Apple Scab [6]
CC(C)(C)CC(C)(C)c1ccc(C(=O)O)cc1 [A, 4-(1,1,3,3-tetramethylbutyl)benzoic acid] | tested positive | – | – | – | – | – | – | –
CC1=C(C(=O)Nc2ccccc2)SCCO1 [Carboxin] | – | No | Yes | No | – | – | – | –
C[C@@H]([C@H](N)C(=O)N[C@H](C(=O)O)[C@H]1O[C@@H](n2ccc(=O)[nH]c2=O)[C@H](O)[C@@H]1O)[C@H](O)c1ccc(O)cn1 [Nikkomycin] | – | No | Yes | No | – | – | – | –
CCCCCOc1c(OC)cc(C)c(C(=O)c2c(OC)ccc(C)c2Cl)c1OC [P, (2-chloro-6-methoxy-3-methylphenyl)[2,4-dimethoxy-6-methyl-3-(pentyloxy)phenyl]methanone] | – | – | – | – | ++ | +++ | 0 | 0
COc1cc(C)c(C(=O)c2c(C)ccc(Cl)c2C)c(OC)c1OC [Q, (3-chloro-2,6-dimethylphenyl)(2,3,4-trimethoxy-6-methylphenyl)methanone] | – | – | – | – | ++ | +++ | 0 | +
COc1cc(C)c(C(=O)c2c(OC)ccc(Cl)c2C)c(OC)c1OC [R, (3-chloro-6-methoxy-2-methylphenyl)(2,3,4-trimethoxy-6-methylphenyl)methanone] | – | – | – | – | ++ | +++ | 0 | 0
COc1cc(C)c(C(=O)c2c(OC)ccc(C(F)(F)F)c2C)c(OC)c1OC [T, [6-methoxy-2-methyl-3-(trifluoromethyl)phenyl](2,3,4-trimethoxy-6-methylphenyl)methanone] | – | – | – | – | 0 | +++ | 0 | 0
CCCC(C)Oc1cc(C)c(C(=O)c2c(Cl)cccc2Cl)cc1OC (stereo not shown) [U, (2,6-dichlorophenyl)[5-methoxy-2-methyl-4-(1-methylbutoxy)phenyl]methanone] | – | – | – | – | ++ | ++ | +++ | 0
COc1cc(C)c(C(=O)c2c(Cl)cccc2Cl)c(OCc2ccccc2F)c1OC [V, (2,6-dichlorophenyl)[2-[(2-fluorophenyl)methoxy]-3,4-dimethoxy-6-methylphenyl]methanone] | – | – | – | – | ++ | +++ | 0 | 0
CCC(=O)Oc1c(OC)c(OC)cc(C)c1C(=O)c1c(Cl)cccc1Cl [W, (2,6-dichlorophenyl)[3,4-dimethoxy-6-methyl-2-(1-oxopropoxy)phenyl]methanone] | – | – | – | – | +++ | +++ | 0 | +++
COc1cc(C)c(C(=O)c2c(C)ccc3ccccc23)c(OCc2ccccc2F)c1OC [X, [3,4-dimethoxy-6-methyl-2-[(2-fluorophenyl)methoxy]phenyl](2-methyl-1-naphthalenyl)methanone] | – | – | – | – | 0 | +++ | 0 | 0
CCCOc1c(OC)cc(C)c(C(=O)c2c(OC)ccc(Br)c2C)c1OCc1ccccc1 [Y, (3-bromo-6-methoxy-2-methylphenyl)[4-methoxy-6-methyl-2-(phenylmethoxy)-3-propoxyphenyl]methanone] | – | – | – | – | 0 | +++ | 0 | 0
